# Results reported in ChEMBL document CHEMBL5380785, “Application of Novel Degraders Employing Autophagy for Expediting Medicinal Research” (J Med Chem, 2023).
# Tests used:
# [1] = Downregulation of extracellular oleic acid induced lipid droplets in MEF cells; type: functional, Mus musculus
# Androgen receptor = molecular target: T1, Androgen receptor (Homo sapiens, UniProt P10275); assay: Induction of AR degradation in human LNCaP cells; type: cell-based
# T1 sequence (P10275 whole entry): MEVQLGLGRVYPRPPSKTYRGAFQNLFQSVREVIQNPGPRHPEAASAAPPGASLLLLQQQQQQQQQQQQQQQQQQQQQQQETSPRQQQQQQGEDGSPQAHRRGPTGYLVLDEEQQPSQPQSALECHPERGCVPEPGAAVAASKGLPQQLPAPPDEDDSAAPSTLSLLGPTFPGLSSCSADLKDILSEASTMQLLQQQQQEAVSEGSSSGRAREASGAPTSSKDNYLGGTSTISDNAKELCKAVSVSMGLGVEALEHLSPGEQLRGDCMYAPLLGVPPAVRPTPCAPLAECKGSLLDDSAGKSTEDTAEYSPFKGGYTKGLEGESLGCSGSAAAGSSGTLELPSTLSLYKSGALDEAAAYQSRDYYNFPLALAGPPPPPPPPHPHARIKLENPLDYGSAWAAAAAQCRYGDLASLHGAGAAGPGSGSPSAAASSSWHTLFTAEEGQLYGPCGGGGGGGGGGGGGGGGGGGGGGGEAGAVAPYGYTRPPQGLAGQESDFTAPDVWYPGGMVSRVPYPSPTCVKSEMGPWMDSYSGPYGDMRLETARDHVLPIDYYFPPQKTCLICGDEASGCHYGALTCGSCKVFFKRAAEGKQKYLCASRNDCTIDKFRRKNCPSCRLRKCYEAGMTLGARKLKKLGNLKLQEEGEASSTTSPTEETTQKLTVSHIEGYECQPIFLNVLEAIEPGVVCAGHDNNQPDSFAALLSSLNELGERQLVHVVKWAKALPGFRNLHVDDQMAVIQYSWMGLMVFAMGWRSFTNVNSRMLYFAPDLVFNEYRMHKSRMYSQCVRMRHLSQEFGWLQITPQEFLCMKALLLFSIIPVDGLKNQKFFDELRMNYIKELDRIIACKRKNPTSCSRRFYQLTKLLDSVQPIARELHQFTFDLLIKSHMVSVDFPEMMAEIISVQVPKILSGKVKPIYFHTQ
# [2] = molecular target: Bromodomain-containing protein 4 (Homo sapiens) (UniProt O60885); assay: Induction of BRD4 degradation in human MDA-MB-231 cells at 10 uM relative to control; type: cell-based
# [3] = molecular target: Bromodomain-containing protein 4 (Homo sapiens) (UniProt O60885); assay: Induction of BRD4 degradation in human HeLa cells relative to control; type: cell-based
# [4] = molecular target: T2, Nicotinamide phosphoribosyltransferase (Homo sapiens, UniProt P43490); assay: Induction of NAMPT degradation in human A2780 cells; type: cell-based
# Target sequence in this assay (P43490 whole entry): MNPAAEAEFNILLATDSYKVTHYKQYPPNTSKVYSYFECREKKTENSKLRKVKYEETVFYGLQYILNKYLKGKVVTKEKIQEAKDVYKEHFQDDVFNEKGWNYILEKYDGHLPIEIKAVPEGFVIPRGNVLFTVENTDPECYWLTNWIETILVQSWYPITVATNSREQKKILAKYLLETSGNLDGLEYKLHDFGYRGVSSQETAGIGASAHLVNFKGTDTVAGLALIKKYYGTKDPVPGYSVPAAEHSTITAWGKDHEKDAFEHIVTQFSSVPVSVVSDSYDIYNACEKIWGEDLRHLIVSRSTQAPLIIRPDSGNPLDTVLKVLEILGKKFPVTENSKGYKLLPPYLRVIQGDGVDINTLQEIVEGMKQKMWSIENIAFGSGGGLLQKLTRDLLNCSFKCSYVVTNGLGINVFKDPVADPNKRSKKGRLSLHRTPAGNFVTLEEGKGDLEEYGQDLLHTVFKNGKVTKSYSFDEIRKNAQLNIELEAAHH
# [5] = molecular target: T2, Nicotinamide phosphoribosyltransferase; assay: Induction of NAMPT degradation in human A2780 cells at 3 uM relative to control; type: cell-based
# Target sequence in this assay (P43490 whole entry, looked up): as the sequence (P43490 whole entry) above
# Cortical neuron = assay: Induction of huntingtin polyQ mutant degradation in mouse primary cortical neuron; type: cell-based; details: dose 10.0 µM
# [6] = molecular target: T3, Methionine aminopeptidase 2 (Homo sapiens, UniProt P50579); assay: Induction of MetAP2 degradation in human U87MG cells; type: cell-based; details: u87mg human egfr viii
# [7] = molecular target: T3, Methionine aminopeptidase 2; assay: Induction of MetAP2 degradation in human HEK293 cells; type: cell-based
# [8] = molecular target: T4, Sequestosome-1/Estrogen receptor beta (Homo sapiens, UniProt Q92731+Q13501); assay: Autotac activity at p62/ERbeta degradation in HEK293T cells; type: cell-based
# Estrogen receptor beta [9] = molecular target: T5, Estrogen receptor beta (Homo sapiens, UniProt Q92731); assay: Induction of ERbeta degradation in human ACHN cells; type: cell-based
# Estrogen receptor beta [10] = molecular target: T5, Estrogen receptor beta; assay: Induction of ERbeta degradation in human HEK293T cells; type: cell-based
# [11] = molecular target: T4, Sequestosome-1/Estrogen receptor beta; assay: Autotac activity at p62/ERbeta degradation in human MCF7 cells; type: cell-based
# Estrogen receptor beta [12] = molecular target: T5, Estrogen receptor beta; assay: Induction of ERbeta degradation in human MCF7 cells; type: cell-based
# [13] = molecular target: T4, Sequestosome-1/Estrogen receptor beta; assay: Autotac activity at p62/ERbeta degradation in human ACHN cells; type: cell-based
# [14] = molecular target: Sequestosome-1/Microtubule-associated protein tau (Homo sapiens, UniProt P10636+Q13501, P618L); assay: Autotac activity at p62/tau P301L mutant in human SH-SY5Y cells assessed as tau P301L degradation; type: cell-based
# [15] = Induction of huntingtin polyQ mutant degradation in human A 172 cells; type: cell-based
# T5 sequence (Q92731 whole entry): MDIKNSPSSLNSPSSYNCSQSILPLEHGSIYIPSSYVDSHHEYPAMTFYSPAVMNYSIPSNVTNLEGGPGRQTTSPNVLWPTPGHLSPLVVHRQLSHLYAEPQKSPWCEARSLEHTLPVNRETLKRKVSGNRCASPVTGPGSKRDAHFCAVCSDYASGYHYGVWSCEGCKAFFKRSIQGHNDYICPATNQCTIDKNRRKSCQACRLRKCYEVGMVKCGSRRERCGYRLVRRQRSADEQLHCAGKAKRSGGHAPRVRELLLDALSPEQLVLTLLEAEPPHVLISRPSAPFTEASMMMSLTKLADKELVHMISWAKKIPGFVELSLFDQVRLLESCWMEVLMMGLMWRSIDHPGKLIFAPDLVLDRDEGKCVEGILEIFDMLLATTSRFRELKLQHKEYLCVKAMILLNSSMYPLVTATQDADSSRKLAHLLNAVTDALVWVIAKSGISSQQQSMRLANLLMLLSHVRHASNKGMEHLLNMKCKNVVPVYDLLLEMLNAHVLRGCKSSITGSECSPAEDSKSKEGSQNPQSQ
# T4 sequence (Q92731 whole entry): as above
# T4 sequence (Q13501 whole entry): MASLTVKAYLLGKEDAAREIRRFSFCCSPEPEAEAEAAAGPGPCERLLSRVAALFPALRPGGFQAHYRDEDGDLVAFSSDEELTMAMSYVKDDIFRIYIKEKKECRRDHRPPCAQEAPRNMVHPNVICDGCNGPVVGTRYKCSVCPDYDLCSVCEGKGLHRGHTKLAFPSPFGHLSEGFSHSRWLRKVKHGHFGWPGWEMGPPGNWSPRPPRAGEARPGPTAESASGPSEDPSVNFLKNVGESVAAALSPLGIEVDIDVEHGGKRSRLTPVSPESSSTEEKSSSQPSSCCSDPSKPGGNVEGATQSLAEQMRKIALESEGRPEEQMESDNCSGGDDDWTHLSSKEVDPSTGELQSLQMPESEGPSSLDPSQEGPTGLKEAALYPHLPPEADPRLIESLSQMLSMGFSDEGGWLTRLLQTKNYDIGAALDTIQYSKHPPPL
# T3 sequence (P50579 whole entry): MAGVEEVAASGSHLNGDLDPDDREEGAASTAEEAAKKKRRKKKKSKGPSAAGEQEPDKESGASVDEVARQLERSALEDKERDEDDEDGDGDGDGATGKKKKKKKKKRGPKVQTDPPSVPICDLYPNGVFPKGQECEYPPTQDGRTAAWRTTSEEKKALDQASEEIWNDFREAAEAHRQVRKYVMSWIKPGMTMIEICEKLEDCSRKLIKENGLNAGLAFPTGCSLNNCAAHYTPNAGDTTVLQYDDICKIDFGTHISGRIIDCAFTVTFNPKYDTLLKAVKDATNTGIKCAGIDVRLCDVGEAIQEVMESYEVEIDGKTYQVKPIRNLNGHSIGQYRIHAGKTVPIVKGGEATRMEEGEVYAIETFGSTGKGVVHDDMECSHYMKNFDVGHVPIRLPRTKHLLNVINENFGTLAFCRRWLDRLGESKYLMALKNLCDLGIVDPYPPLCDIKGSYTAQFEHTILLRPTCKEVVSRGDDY
# Sequence of Sequestosome-1/Microtubule-associated protein tau (P10636 2-758 P618L limits assumed, stated change not applied): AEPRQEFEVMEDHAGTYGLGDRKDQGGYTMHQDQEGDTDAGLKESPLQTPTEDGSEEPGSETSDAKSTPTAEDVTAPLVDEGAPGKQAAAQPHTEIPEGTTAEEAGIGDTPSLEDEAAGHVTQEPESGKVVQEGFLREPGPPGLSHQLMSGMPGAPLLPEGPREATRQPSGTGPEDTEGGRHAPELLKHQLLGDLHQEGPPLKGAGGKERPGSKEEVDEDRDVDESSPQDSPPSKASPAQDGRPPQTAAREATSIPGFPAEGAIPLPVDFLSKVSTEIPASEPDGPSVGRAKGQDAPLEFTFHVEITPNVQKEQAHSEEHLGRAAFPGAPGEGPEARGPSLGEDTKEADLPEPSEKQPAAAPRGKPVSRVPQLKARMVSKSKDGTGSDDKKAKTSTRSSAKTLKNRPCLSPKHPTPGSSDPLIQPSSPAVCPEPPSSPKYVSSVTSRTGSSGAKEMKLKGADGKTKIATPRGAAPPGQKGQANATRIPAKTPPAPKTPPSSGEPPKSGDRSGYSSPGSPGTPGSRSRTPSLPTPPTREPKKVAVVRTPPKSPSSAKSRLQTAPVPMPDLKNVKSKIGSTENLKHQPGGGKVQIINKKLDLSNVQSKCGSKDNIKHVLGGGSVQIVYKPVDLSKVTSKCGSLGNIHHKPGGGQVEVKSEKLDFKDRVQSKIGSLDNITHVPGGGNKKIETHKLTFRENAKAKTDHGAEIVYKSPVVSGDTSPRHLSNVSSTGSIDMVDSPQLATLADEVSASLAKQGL
# Sequence of Sequestosome-1/Microtubule-associated protein tau (Q13501 2-440 limits assumed, stated change not applied): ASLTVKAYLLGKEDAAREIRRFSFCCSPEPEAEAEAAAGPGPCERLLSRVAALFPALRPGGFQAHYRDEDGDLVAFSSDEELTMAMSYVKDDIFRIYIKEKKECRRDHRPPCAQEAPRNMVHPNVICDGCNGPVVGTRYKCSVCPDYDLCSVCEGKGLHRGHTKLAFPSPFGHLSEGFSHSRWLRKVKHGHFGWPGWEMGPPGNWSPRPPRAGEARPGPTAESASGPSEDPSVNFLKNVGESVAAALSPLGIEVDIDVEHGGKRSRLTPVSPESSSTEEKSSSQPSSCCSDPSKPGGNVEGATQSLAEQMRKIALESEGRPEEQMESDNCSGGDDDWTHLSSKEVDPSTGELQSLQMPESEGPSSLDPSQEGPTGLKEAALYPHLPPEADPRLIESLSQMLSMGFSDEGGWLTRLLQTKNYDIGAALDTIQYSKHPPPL
compound,measurement,setting,value
Cc1ccccc1/N=N/c1ccc(/N=N/c2c(OCCCCCCCCCCN3C(=O)/C(=C\c4cc(Br)c(O)c(Br)c4)c4cc(I)ccc43)ccc3ccccc23)c(C)c1,ED,[1],5 µM
C=CC(C)(O)C(=O)N(C(=O)NCCOCCOCCNC[C@@H](O)COc1ccc(OCCc2ccccc2)c(OCCCc2ccccc2)c1)c1cc(Cl)cc(Cl)c1 (some centres undefined),DC50,Androgen receptor,200 nM
CC1=C(C)C2C(c3ccc(Cl)cc3)=N[C@@H](CC(=O)NCCCOCCOCCOCCCNC(=O)COc3c(Br)cc(/C=C4\C(=O)Nc5ccc(I)cc54)cc3Br)c3nnc(C)n3C2S1 (some centres undefined),Activity,[2],99%
same,Activity,[3],92%
Cc1ccc(C(=O)N(CCCNC(=O)CCCCCCCCN2CCN(S(=O)(=O)c3ccc(NC(=S)NCc4cccnc4)cc3)CC2)[C@@H](c2nc3cc(Cl)ccc3c(=O)n2Cc2ccccc2)C(C)C)cc1,IC50,[4],40 nM
same,Activity,[5],91%
O=c1cc(-c2ccccc2)c2c(O)cc(O)cc2o1,ED,Cortical neuron,75 nM
O=C1Nc2ccc(Br)cc2/C1=C/c1cc(O)c(O)c(Br)c1,ED,Cortical neuron,50 nM
COC1C(OC(=O)/C=C/C=C/C=C/C=C/C(=O)NCCOCCOCCNCc2cccc(OCc3ccccc3)c2)CCC2(CO2)C1C1(C)OC1CC=C(C)C (centres undefined),DC50,[6],500 nM
same,DC50,[7],700 nM
O[C@H](CNCCOCCOCCOc1ccc(-c2c(-c3ccccc3)nn3c(C(F)(F)F)cc(C(F)(F)F)nc23)cc1)COc1ccc(OCc2ccccc2)c(OCCCc2ccccc2)c1,DC50,[8],2 nM
same,DC50,Estrogen receptor beta [9],< 100 nM
same,DC50,Estrogen receptor beta [10],2 nM
same,DC50,[11],< 100 nM
same,DC50,Estrogen receptor beta [12],< 100 nM
same,DC50,[13],< 100 nM
O=C(CCCc1ccccc1)NCCOCCOCCOCCNCc1ccc(OCc2ccccc2)c(OCc2ccccc2)c1,DC50,[14],1 nM
Cc1ccccc1/N=N/c1ccc(/N=N/c2c(OCCCCCCCCCCOc3cc(O)cc4oc(=O)cc(-c5ccccc5)c34)ccc3ccccc23)c(C)c1,ED,[1],5 µM
H-GIYVIWGPITERKKRRKG-NH2,IC50,[15],57.2 nM
